According to the supplement of paper PMC8671470:

Key:
Settings in all cases: 72 h
ML-2 [1] = tested on: ML-2
In short: (§1)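 Fifteen myeloid leukaemia cell lines were seeded in RPMI 1640 at a density titrated to the linear growth range. Each line went into 384-well plates with compounds acoustically pre-printed at five tenfold doses from 1 to 10,000 nM, in duplicate, and was incubated for 72 h at 37 °C with 5% CO2. Luminescent ATP viability was normalised to vehicle and to a positive control at 10 µM. The IC50 came from four-parameter log-logistic dose–response fits.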

Mono-Mac-6 [2] = tested on: Mono-Mac-6
In short: as §1

THP-1 [3] = tested on: THP-1
In short: as §1

K-562 [4] = tested on: K-562
In short: as §1

KCL-22 [5] = tested on: KCL-22
In short: as §1

LAMA-84 [6] = tested on: LAMA-84
In short: as §1

SHI-1 [7] = tested on: SHI-1
In short: as §1

KU-812 [8] = tested on: KU-812
In short: as §1

MV4-11 [9] = tested on: MV4-11
In short: as §1

HL-60 [10] = tested on: HL-60
In short: as §1

MOLM-13 [11] = tested on: MOLM-13
In short: as §1

KG-1 [12] = tested on: KG-1
In short: as §1

NOMO-1 [13] = tested on: NOMO-1
In short: as §1

HEL [14] = tested on: HEL
In short: as §1

BV-173 [15] = tested on: BV-173
In short: as §1

ML-2 [16] = assay: cell viability (% survival relative to DMSO control, bortezomib = 0%); higher = less cytotoxic
In short: (§2)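 Fifteen myeloid leukaemia cell lines were exposed to compounds at 1, 10, 100, 1000 or 10000 nM in 384-well plates for 72 h at 37 °C and 5% CO2. Viability was read by CellTiter-Glo luminescence and normalised, with vehicle as 100% and a 10 µM positive control as 0%. Values are percent survival averaged over duplicates.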

Mono-Mac-6 [17] = assay: as above
In short: as §2

THP-1 [18] = assay: as above
In short: as §2

K-562 [19] = assay: as above
In short: as §2

KCL-22 [20] = assay: as above
In short: as §2

LAMA-84 [21] = assay: as above
In short: as §2

SHI-1 [22] = assay: as above
In short: as §2

KU-812 [23] = assay: as above
In short: as §2

MV4-11 [24] = assay: as above
In short: as §2

HL-60 [25] = assay: as above
In short: as §2

MOLM-13 [26] = assay: as above
In short: as §2

KG-1 [27] = assay: as above
In short: as §2

NOMO-1 [28] = assay: as above
In short: as §2

HEL [29] = assay: as above
In short: as §2

BV-173 [30] = assay: as above
In short: as §2

CN(CCCOc1ccc(Cc2ccccc2)cc1)CCC(=O)O
Settings | IC50 (cell viability) [µM]
BV-173 [15] | > 10
HEL [14] | > 10
HL-60 [10] | > 10
K-562 [4] | > 10
KCL-22 [5] | > 10
KG-1 [12] | > 10
KU-812 [8] | > 10
LAMA-84 [6] | > 10
ML-2 [1] | > 10
MOLM-13 [11] | > 10
MV4-11 [9] | > 10
Mono-Mac-6 [2] | > 10
NOMO-1 [13] | > 10
SHI-1 [7] | > 10
THP-1 [3] | > 10

cell viability [%]
Settings | 1 nM | 10 nM | 100 nM | 1000 nM | 10000 nM
BV-173 [30] | 96.8 | 98.4 | 100 | 99.4 | 95.8
HEL [29] | 107 | 113 | 102 | 129 | 110
HL-60 [25] | 99.9 | 102 | 120 | 191 | 115
K-562 [19] | 103 | 107 | 98.1 | 112 | 104
KCL-22 [20] | 106 | 103 | 94.8 | 116 | 110
KG-1 [27] | 94.1 | 110 | 104 | 108 | 92.6
KU-812 [23] | 99.9 | 105 | 90.9 | 106 | 94.2
LAMA-84 [21] | 110 | 119 | 95 | 98.2 | 91.9
ML-2 [16] | 105 | 97 | 103 | 113 | 107
MOLM-13 [26] | 119 | 122 | 91.9 | 133 | 79.1
MV4-11 [24] | 99.1 | 97.6 | 96 | 125 | 87.8
Mono-Mac-6 [17] | 106 | 90.1 | 101 | 107 | 89
NOMO-1 [28] | 106 | 107 | 95.1 | 106 | 101
SHI-1 [22] | 106 | 102 | 116 | 115 | 110
THP-1 [18] | 104 | 103 | 96.1 | 98.4 | 102

Cc1ccc(-c2cc(C(F)(F)F)nn2-c2ccc(S(N)(=O)=O)cc2)cc1 [Celecoxib]
Settings | IC50 (cell viability) [µM]
BV-173 [15] | > 10
HEL [14] | > 10
HL-60 [10] | > 10
K-562 [4] | > 10
KCL-22 [5] | > 10
KG-1 [12] | > 10
KU-812 [8] | > 10
LAMA-84 [6] | > 10
ML-2 [1] | > 10
MOLM-13 [11] | > 10
MV4-11 [9] | > 10
Mono-Mac-6 [2] | > 10
NOMO-1 [13] | > 10
SHI-1 [7] | > 10
THP-1 [3] | > 10

cell viability [%]
Settings | 1 nM | 10 nM | 100 nM | 1000 nM | 10000 nM
BV-173 [30] | 104 | 93.2 | 86.4 | 84.9 | 83.2
HEL [29] | 96.1 | 104 | 89.9 | 99.5 | 97.1
HL-60 [25] | 99.2 | 103 | 84.5 | 188 | 124
K-562 [19] | 96.3 | 86.6 | 85.6 | 95.4 | 78.4
KCL-22 [20] | 101 | 76.4 | 90.7 | 76.9 | 80
KG-1 [27] | 96.8 | 102 | 97.4 | 110 | 93.8
KU-812 [23] | 92.4 | 91.9 | 95.6 | 90.6 | 62.8
LAMA-84 [21] | 98.6 | 106 | 94 | 93.7 | 79.6
ML-2 [16] | 93.5 | 99.2 | 105 | 87.4 | 76.8
MOLM-13 [26] | 81.3 | 85.7 | 85.4 | 139 | 92.5
MV4-11 [24] | 97.5 | 96.4 | 83.7 | 110 | 79.4
Mono-Mac-6 [17] | 104 | 101 | 105 | 104 | 75.3
NOMO-1 [28] | 101 | 109 | 94.8 | 99.4 | 95.5
SHI-1 [22] | 118 | 104 | 95.6 | 112 | 94.2
THP-1 [18] | 105 | 102 | 105 | 95.5 | 84.7

Cc1cc2c(C(C)C)c(O)c(O)c(C=O)c2c(O)c1-c1c(C)cc2c(C(C)C)c(O)c(O)c(C=O)c2c1O [Gossypol]
Settings | IC50 (cell viability) [µM]
BV-173 [15] | 1.6
HEL [14] | 3.55
HL-60 [10] | 3.87
K-562 [4] | 3.67
KCL-22 [5] | 2.86
KG-1 [12] | 3.57
KU-812 [8] | 2.41
LAMA-84 [6] | 3.34
ML-2 [1] | 2.1
MOLM-13 [11] | 2.98
MV4-11 [9] | 3.43
Mono-Mac-6 [2] | 2.81
NOMO-1 [13] | 2.88
SHI-1 [7] | 6.25
THP-1 [3] | 2.54

cell viability [%]
Settings | 1 nM | 10 nM | 100 nM | 1000 nM | 10000 nM
BV-173 [30] | 95.8 | 90 | 98.8 | 68.3 | 0.788
HEL [29] | 101 | 104 | 101 | 108 | 0.902
HL-60 [25] | 107 | 108 | 111 | 117 | 0.854
K-562 [19] | 94.6 | 103 | 91 | 110 | 1.45
KCL-22 [20] | 105 | 101 | 116 | 92.7 | 2.21
KG-1 [27] | 95.8 | 98.9 | 105 | 101 | 5.89
KU-812 [23] | 95 | 94.2 | 105 | 86.1 | 0.646
LAMA-84 [21] | 95.2 | 106 | 104 | 103 | 0.378
ML-2 [16] | 103 | 103 | 105 | 82.6 | 0.171
MOLM-13 [26] | 104 | 97.6 | 95.2 | 97.1 | -0.453
MV4-11 [24] | 97.7 | 91.2 | 93.6 | 104 | -0.358
Mono-Mac-6 [17] | 94.6 | 85.5 | 112 | 91.8 | 0.586
NOMO-1 [28] | 97.2 | 97.5 | 104 | 94.1 | 0.946
SHI-1 [22] | 101 | 106 | 105 | 98.2 | 28
THP-1 [18] | 95.3 | 90.3 | 96.6 | 84.4 | 0.727
